Key:
MEK1/2 [1] = experiment: Rescue experiments (pretreatment) in SK-MEL-28 cells, western blot; type: cell-based; details: 2 h pretreatment with PD0325901 (1 μM), MG-132 (3 μM), MLN4924 (1 μM) or VH 032 (10 μM), then 10 h with 0.3 μM CPD-031
pMEK and pERK [2] = experiment: Western blot of MEK and ERK phosphorylation in SK-MEL-28 cells; details: for phosphorylation of MEK and ERK / pERK signaling, time-dependent / phosphorylation of MEK and ERK proteins, concentration-dependent: SK-MEL-28 cells; for phosphorylation of MEK and ERK / pERK signaling, time-dependent: 0.1 μM or 0.3 μM, harvested at indicated time points; for phosphorylation of MEK and ERK proteins, concentration-dependent: serial dilution, western blot
SK-MEL-28 cells [3] = experiment: MTT cell viability assay, SK-MEL-28; type: cell-based; details: MTT 3 d, clonogenic assay 14 d at 10, 30 and 100 nM
Protocol: Clonogenic assay was performed in HT-29 (C) and SK-MEL-28 (D) cells for 14 d treatment with DMSO or indicated compounds with 10, 30 and 100 nM, in duplicate, respectively. Cells were then stained by crystal violet.
(§1) Cells (2000 cells per well) were seeded into 96-well microplates. After 20 h, cells were treated with 0.1% DMSO or indicated serial dilutions of compounds in duplicate or triplicate for 3 days. Cell viability was tested using MTT (M6494, Thermo Fisher Scientific) or WST-8 reagent (CK04, Dojindo). Briefly, 12 mM MTT was prepared in PBS or WST-8 reagent was warmed up to room temperature. 20 μL MTT or CCK-8 was then added to each well and the plates were kept in incubator at 37° C. for 3 h in the dark. For the WST-8 assay, signal was obtained after the incubation. For the MTT assay, cell medium was replaced with 200 μL of DMSO after the incubation, and then cell plates were kept at 37° C. for another 30 min. Absorbance signals for MTT and WST-8 were read at 540 nm and 450 nm respectively, with 690 nm as reference performed with Infinite F PLEX plate reader (TECAN, Morrisville, NC, USA). GI50 values were analyzed using GraphPad Prism 8 from the data of at least three independent experiments.
HT-29 or SK-MEL-28 cells (300 cells per well) were seeded in 12-well plates. After 20 h, cells were treated with DMSO or indicated concentrations of compounds in duplicate for two weeks. […]

MEK1 = molecular target: T1, MEK1 (Homo sapiens, UniProt Q02750); experiment: HotSpot kinase inhibition assay, MEK1; type: biochemical; details: MEK1 100 nM, ERK K52R substrate, 33P-ATP, normalized with DMSO
T1 construct: purchased Thermo Fisher Scientific PV3303

MEK1/2 [4] = experiment: Western blot of MEK1/2 protein levels in HT-29 cells; type: cell-based; details: for MEK1 and MEK2 protein levels, time-dependent / MEK1 and MEK2 protein levels, concentration-dependent: HT-29 cells; for MEK1 and MEK2 protein levels, time-dependent: 0.1 μM or 0.3 μM, harvested at indicated time points; for MEK1 and MEK2 protein levels, concentration-dependent: serial dilution, western blot
Protocol: Compound concentrations are 0.3 μM, 1 μM and 3 μM.
(§3) The indicated protein levels were determined by Western blots.
(§4) The sample was centrifuged at 12,000 g for 10 min at 4° C. to get supernatant as cell lysate. Protein concentrations were quantified using Pierce rapid gold BCA protein assay kit.

MEK1/2 [5] = experiment: Western blot of MEK1/2 protein levels in SK-MEL-28 cells; details: for MEK1 and MEK2 protein levels, time-dependent / MEK1 and MEK2 protein levels, concentration-dependent: SK-MEL-28 cells; for MEK1 and MEK2 protein levels, time-dependent: 0.1 μM or 0.3 μM, harvested at indicated time points; for MEK1 and MEK2 protein levels, concentration-dependent: serial dilution, western blot
Protocol: as §3, §4

MEK2 = molecular target: T2, MEK2 (Homo sapiens, UniProt P36507); experiment: HotSpot kinase inhibition assay, MEK2; type: biochemical; details: MEK2 150 nM, ERK K52R substrate, 33P-ATP, normalized with DMSO
T2 construct: purchased Thermo Fisher Scientific PV3615

pMEK and pERK [6] = experiment: Western blot of MEK and ERK phosphorylation in HT-29 cells; type: cell-based; details: for phosphorylation of MEK and ERK / pERK signaling, time-dependent / phosphorylation of MEK and ERK proteins, concentration-dependent: HT-29 cells; for phosphorylation of MEK and ERK / pERK signaling, time-dependent: 0.1 μM or 0.3 μM, harvested at indicated time points; for phosphorylation of MEK and ERK proteins, concentration-dependent: serial dilution, western blot
HT-29 cells [7] = experiment: MTT cell viability assay, HT-29; type: cell-based
Protocol: MTT assay was conducted for HT-29 cells after 3 d treatment with indicated compounds with serial dilutions.
MTT assay was conducted for HT-29 (A) and SK-MEL-28 (B) cells after 3 d treatment with DMSO or indicated compounds with serial dilutions. Clonogenic assay was performed in HT-29 (C) and SK-MEL-28 (D) cells for 14 d treatment with DMSO or indicated compounds with 10, 30 and 100 nM, in duplicate, respectively. Cells were then stained by crystal violet.
HT-29 or SK-MEL-28 cells (300 cells per well) were seeded in 12-well plates. After 20 h, cells were treated with DMSO or indicated concentrations of compounds in duplicate for two weeks. Medium containing indicated compounds was changed every 3 days. Cells were then fixed and stained with the solution containing 6% (v/v) glutaraldehyde (G5882, Sigma-Aldrich) and 0.5% (w/v) crystal violet for 1 h. To remove the background color, the plates with stained cells were immersed in running water until clear colonies were observed. The plates were dried at RT. The staining images were obtained with Epson Perfection V600 Photo.

MEK1/2 [8] = experiment: Rescue experiments (pretreatment) in HT-29 cells, western blot; type: cell-based; details: 2 h pretreatment with PD0325901 (1 μM), MG-132 (3 μM), MLN4924 (1 μM) or VH 032 (10 μM), then 10 h with 0.3 μM CPD-031
Protocol: The cells were incubated for another 8 h.
as §4

MEK1 and MEK2 proteins = experiment: Global proteome analysis of HT-29 cells; type: cell-based, human
Protocol: […] […] P values were calculated from the data of two technical replicates. (A) DMSO compared to CPD-031 treated samples; (B) CPD-034 compared to CPD-031 treated samples; (C) DMSO compared to CPD-034 treated samples.
Proteins outside the significance lines were labeled with pink or purple color (FDR=0.05, S0=1). P values were calculated from the data of two technical replicates.
Protein Extraction and Digestion. Cells with indicated treatments were harvested and lysed in lysis buffer (6 M guanidine hydrochloride, 100 mM Tris-HCl pH 8.0). Sonication (5 s on, 5 s off, 2×30 s) was performed to shear genome DNA. Lysate were centrifugated for 30 min at 3,500 g at 4° C. and the supernatant were transferred to a clean tube, diluted 50% with Milli-Q H2O, then precipitated by addition of cold acetone (four times the original volume), and placed at −20° C. overnight. Precipitated proteins were brought down at 20,000 g at 4° C. for 10 min, and washed with cold acetone after discarding the supernatant. The pellet was air-dried at RT for 5 min and solubilized with 50 mM Tris-HCl (PH 8.0), 8 M urea. Protein concentration was determined (BCA assay) and protein was reduced with 5 mM DTT (dithiothreitol), alkylated with 15 mM IAA (iodoacetamide) in the dark, then diluted with buffer 25 mM Tris (pH 8.0) and 1 mM CaCl2 (three times the original volume). The final urea concentration is 2 M. Trypsin was added into protein solution with 1:100 ratio (trypsin:protein), and digested 12-16 h or overnight at RT.
Mass Spectrometry Analysis. Peptides were cleaned up by C18 stage tips and the concentration was determined (Peptide assay, 23275, Thermo Fisher Scientific). The clean peptides were dissolved in 0.1% formic acid and analyzed on a Q-Exactive HF-X coupled with an Easy nanoLC 1200 (Thermo Fisher Scientific, San Jose, CA). 0.5 μg of peptides were loaded onto an Acclain PepMap RSLC C18 Column (250 mm×75 μm ID, C18, 2 μm, Thermo Fisher Scientific). […] A linear gradient of 5 to 30% buffer B over 110 min was executed at a 300 nl/min flow rate followed a ramp to 100% B in 5 min, and 15-min wash with 100% B, where buffer A was aqueous 0.1% formic acid, and buffer B was 80% acetonitrile and 0.1% formic acid.
LC-MS experiments were performed in a data-dependent mode with full MS (externally calibrated to a mass accuracy of <5 ppm and a resolution of 60,000 at m/z 200) followed by high energy collision-activated dissociation-MS/MS of the top 20 most intense ions with a resolution of 15,000 at m/z 200. High energy collision-activated dissociation-MS/MS was used to dissociate peptides at a normalized collision energy of 27 eV in the presence of nitrogen bath gas atoms. Dynamic exclusion was 30.0 seconds. Each sample was subjected to two technical LC-MS replicates.
MS Data Analysis. Mass spectra processing and peptide identification were performed on the Andromeda search engine in MaxQuant software (Version 1.6.0.16) against the human UniProt database (UP000005640). All searches were conducted with a defined modification of cysteine carbamidomethylation, with methionine oxidation and protein amino-terminal acetylation as dynamic modifications. Peptides were confidently identified using a target-decoy approach with a peptide false discovery rate (FDR) of 1% and a protein FDR of 1%. A minimum peptide length of 7 amino acids was required, maximally two missed cleavages were allowed, initial mass deviation for precursor ion was up to 7 ppm, and the maximum allowed mass deviation for fragment ions was 0.5 Da. Data processing and statistical analysis were performed on Perseus (Version 1.6.0.7). Protein quantitation was performed on duplicate runs, and a two-sample t-test statistics was used to report statistically significant expression fold-changes.

H3122 cells = experiment: WST-8 cell viability assay, H3122; type: cell-based; details: WST-8, 3 d
Protocol: as §1

SUDHL1 cells = experiment: WST-8 cell viability assay, SUDHL1; type: cell-based; details: WST-8, 3 d
Protocol: as §1

SK-MEL-28 cells [9] = experiment: WST-8 cell viability assay, SK-MEL-28; type: cell-based
Protocol: (§2) Cells were fixed and stained by crystal violet.
as §1

HT-29 cells [10] = experiment: WST-8 cell viability assay, HT-29; type: cell-based
Protocol: as §2, §1

[11] = SK-MEL-28 cells, 0.1, 0.3, or 1 μM, 24 h
[12] = HT-29 cells, 0.1, 0.3, or 1 μM, 24 h

T1 sequence (Q02750 whole entry): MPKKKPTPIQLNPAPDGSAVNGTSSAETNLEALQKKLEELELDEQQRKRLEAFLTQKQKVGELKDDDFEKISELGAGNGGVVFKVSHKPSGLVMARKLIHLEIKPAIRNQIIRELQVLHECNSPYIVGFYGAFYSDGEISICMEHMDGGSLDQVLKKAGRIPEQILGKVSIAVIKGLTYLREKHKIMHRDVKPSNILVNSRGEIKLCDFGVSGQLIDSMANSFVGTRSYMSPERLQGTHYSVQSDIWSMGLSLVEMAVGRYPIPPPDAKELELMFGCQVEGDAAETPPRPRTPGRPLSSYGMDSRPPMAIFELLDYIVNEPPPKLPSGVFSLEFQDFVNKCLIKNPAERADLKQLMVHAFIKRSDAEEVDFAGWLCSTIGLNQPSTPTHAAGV
T2 sequence (P36507 whole entry): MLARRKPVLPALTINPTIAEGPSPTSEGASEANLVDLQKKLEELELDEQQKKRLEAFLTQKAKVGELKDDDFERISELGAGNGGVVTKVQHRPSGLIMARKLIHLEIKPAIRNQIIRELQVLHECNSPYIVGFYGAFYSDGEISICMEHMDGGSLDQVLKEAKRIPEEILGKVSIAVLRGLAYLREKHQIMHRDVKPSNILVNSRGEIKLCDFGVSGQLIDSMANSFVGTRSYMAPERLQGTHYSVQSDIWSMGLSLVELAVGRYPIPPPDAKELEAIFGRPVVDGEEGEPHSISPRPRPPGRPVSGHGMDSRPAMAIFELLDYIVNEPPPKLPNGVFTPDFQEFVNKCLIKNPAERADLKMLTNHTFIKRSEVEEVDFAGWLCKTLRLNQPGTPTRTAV

Structure (SMILES) | phosphorylation of MEK and ERK / pERK signaling, time-dependent (pMEK and pERK [2]) | phosphorylation of MEK and ERK proteins, concentration-dependent (pMEK and pERK [2]; 24 h) | MEK1 and MEK2 protein levels, time-dependent (MEK1/2 [4]) | MEK1 and MEK2 protein levels, concentration-dependent (MEK1/2 [4]; 24 h) | MEK1 and MEK2 protein levels, time-dependent (MEK1/2 [5]) | MEK1 and MEK2 protein levels, concentration-dependent (MEK1/2 [5]; 24 h) | phosphorylation of MEK and ERK / pERK signaling, time-dependent (pMEK and pERK [6]) | phosphorylation of MEK and ERK proteins, concentration-dependent (pMEK and pERK [6]; 24 h) | growth inhibition compared with AZ compound (H3122 cells) | growth inhibition compared with AZ compound (SUDHL1 cells) | other results
Cc1ncsc1-c1ccc([C@H](C)NC(=O)[C@@H]2C[C@@H](O)CN2C(=O)[C@@H](NC(=O)CCCCCCCCCCNCCCONC(=O)c2ccc(F)c(F)c2Nc2ccc(I)cc2F)C(C)(C)C)cc1 [CPD-031, (2S,4R)-1-((S)-20-(tert-butyl)-1-(3,4-difluoro-2-((2-fluoro-4-iodophenyl)amino)phenyl)-1,18-dioxo-3-oxa-2,7,19-triazahenicosan-21-oyl)-4-hydroxy-N—((S)-1-(4-(4-methylthiazol-5-yl)phenyl)ethyl)pyrrolidine-2-carboxamide] | inhibited | inhibited | reduced | reduced | reduced | reduced | inhibited | inhibited |  |  | potency at degradation of MEK1 and MEK2 and inhibition of MEK phosphorylation after pretreatment (MEK1/2 [1]): significantly impaired; inhibition of MEK and ERK phosphorylation compared with CPD-034 (pMEK and pERK [2]; [11]): more potent; inhibition of the growth of cells compared with CPD-034 (SK-MEL-28 cells [3]): more potent; MEK1 kinase activity (MEK1): inhibited; MEK1 and MEK2 protein levels (MEK1/2 [4]; [12]): reduced; MEK1 and MEK2 protein levels (MEK1/2 [5]; [11]): reduced; MEK2 kinase activity (MEK2): inhibited; inhibition of MEK and ERK phosphorylation compared with CPD-034 (pMEK and pERK [6]; [12]): more potent; GI50 (HT-29 cells [7]; Homo sapiens, 72 h, MTT assay, 3 d treatment, serial dilutions): 0.13 ± 0.04 µM; inhibition of the growth of cells compared with CPD-034 (HT-29 cells [7]; MTT 3 d, clonogenic assay 14 d at 10, 30 and 100 nM): more potent; potency at degradation of MEK1 and MEK2 and inhibition of MEK phosphorylation after pretreatment (MEK1/2 [8]): significantly impaired; protein levels in the global proteomic study (MEK1 and MEK2 proteins; 10 h, 0.1 μM, versus 0.1% DMSO): selectively degraded
Cc1ncsc1-c1ccc([C@H](C)NC(=O)[C@@H]2C[C@@H](O)CN2C(=O)[C@@H](NC(=O)CCCCCCCCCCCNCCCCONC(=O)c2ccc(F)c(F)c2Nc2ccc(I)cc2F)C(C)(C)C)cc1 [CPD-038, (2S,4R)-1-((S)-22-(tert-butyl)-1-(3,4-difluoro-2-((2-fluoro-4-iodophenyl)amino)phenyl)-1,20-dioxo-3-oxa-2,8,21-triazatricosan-23-oyl)-4-hydroxy-N—((S)-1-(4-(4-methylthiazol-5-yl)phenyl)ethyl)pyrrolidine-2-carboxamide] | inhibit |  | degrade |  | degrade |  | inhibit |  | more potent | more potent | protein levels in the global proteomic study (MEK1 and MEK2 proteins; 8 h, 0.1 μM CPD-038 or CPD-052, 0.3 μM CPD-051 or CPD-097, versus 0.1% DMSO): selectively degraded
Cc1ncsc1-c1ccc([C@H](C)NC(=O)[C@@H]2C[C@@H](O)CN2C(=O)[C@@H](NC(=O)CCCCCCCCCCN(C)CCCONC(=O)c2ccc(F)c(F)c2Nc2ccc(I)cc2F)C(C)(C)C)cc1 [CPD-037, (2S,4R)-1-((S)-20-(tert-butyl)-1-(3,4-difluoro-2-((2-fluoro-4-iodophenyl)amino)phenyl)-7-methyl-1,18-dioxo-3-oxa-2,7,19-triazahenicosan-21-oyl)-4-hydroxy-N—((S)-1-(4-(4-methylthiazol-5-yl)phenyl)ethyl)pyrrolidine-2-carboxamide] | inhibit | inhibit | degrade | degrade | degrade | degrade | inhibit | inhibit | more potent | more potent | growth of cells (SK-MEL-28 cells [9]; WST-8 3 d serial dilutions): significantly suppressed; growth inhibition compared with AZ compound (SK-MEL-28 cells [9]; WST-8, 3 d): more potent; growth of cells (HT-29 cells [10]; WST-8 3 d serial dilutions, clonogenic assay 10 d): significantly suppressed; growth inhibition compared with AZ compound (HT-29 cells [10]; WST-8, 3 d): more potent

From patent US12103924B2, “Mitogen-activated protein kinase kinase (MEK) degradation compounds and methods of use” (Icahn School of Medicine at Mount Sinai, priority 2020, dated 2024)
